Tests used:
Format in all cases: in vivo, human
[1] = test system: MTX-naïve adult patients with active, early RA (<3 years); experiment: Study J: individual clinical remission criteria (TJC=0, SJC=0, HAQ=0, morning stiffness=0)
Method: A total of 799 patients were enrolled. Baseline demographics and clinical characteristics of the patients enrolled in this study are described in Example 7. Baseline demographics and clinical characteristics were similar among the 3 arms, i.e., ada+mtx, ada alone, or mtx alone. […] After 1 and 2 years of therapy, the percentages of patients with ACR90 responses, TJC=0, SJC=0, HAQ=0, morning stiffness=0 minutes, and normal CRP were determined. Data are from the intention-to-treat (ITT) population with imputation used for missing values. Results were compared with the percentages of patients who achieved DAS28<2.6 or a Major Clinical Response (MCR).

[2] = test system: MTX-naïve adult patients with active, early RA (<3 years); experiment: Study J: clinical remission by DAS28<2.6
Method: Clinical remission, defined as DAS28<2.6, is described below in Table 25.
Secondary endpoints included DAS28<2.6 at year 1 and Major Clinical Response (MCR=ACR70 response for ≧6 continuous months during a 2-year period).
At 1 and 2 years, the American College of Rheumatology (ACR) responses (ACR20, ACR50, and ACR70), the Disease Activity Score 28 (DAS28), and the change (Δ) in Total Sharp Score (TSS) were determined for all patients. Results were analyzed for the intention-to-treat (ITT) population using imputation for missing data. Clinical remission was defined as DAS28<2.6. The mean ΔTSS values at 1 year and 2 years (N=791) were determined for patients in each ACR response category (ACR20/50/70) and for patients with DAS28<2.6

[3] = test system: patients with long-standing RA who had inadequate responses to MTX; experiment: Study 1 (adalimumab + MTX vs placebo + MTX, 12-month RCT plus OLE): radiographic progression (TSS, JE, JSN)
Method: The study design included a 12 month, double blind, randomized, placebo-controlled trial.
Patients were grouped into three cohorts based on baseline CRP concentrations: low (<1 mg/dL); intermediate (1-4 mg/dL); and high (>4 mg/dL). Analyses were further conducted in two categories of patients according to their change in CRP concentrations at Week 12: those with a ≧20% decrease in CRP from baseline; or those with a <20% decrease in CRP from baseline. The following efficacy and radiographic measures were analyzed at Week 52 in the three baseline CRP categories and in the two Week 12 change in CRP categories: DAS28, ACR 20/50/70, Health assessment questionnaire (HAQ), and Total Sharp score (TSS).
Two readers assessed X-rays performed at baseline (start of RCT), 1 year (end of RCT), and 3 years (post 2 years OLE). Changes from baseline in Total Sharp Score (TSS), Joint Erosions (JE), and Joint Space Narrowing (JSN) were calculated. ACR 20, 50, and 70 response rates, as well as TJC and SJC, were also measured.

[4] = test system: MTX-naïve adult patients with early RA (<3 years); experiment: Study J: escalation of injectable medicine from eow to weekly dosing; conditions: for ACR20 following dosage escalation, % of all patients in arm / ACR70 following dosage escalation, % of all patients in arm / DAS28 < 2.6 following dosage escalation, % of all patients in arm / ACR60 following dosage escalation, % of all patients in arm: patients with no prior ACR20 response, NRI; for ACR50, % of responders / ACR70, % of responders: patients whose dosages of adalimumab or placebo injections were escalated; for patients who increased injectable medication to weekly: during year 1 (placebo injections in MTX arm)
Method: Study J was a 2-year, double-blind, active comparator-controlled, Phase III study. […] In patients receiving ADA+MTX or MTX monotherapy, the 7.5 mg MTX weekly dosage increased to 20 mg over 8 weeks, as tolerated and as needed. Monotherapy patients received either placebo pills (adalimumab arm) or placebo injections (MTX arm). Efficacy outcomes measured included ACR response, DAS28 remission, major clinical response, and radiographic change from baseline.
MTX optimization was required before starting weekly injections (to 20 mg weekly, maximum). Once initiated, weekly dosing of injectable medicine was to be maintained until end of study. Criteria for identification of dosage escalators were a sequence of 4 consecutive injections for which the interval for every two consecutive injections was ≦10 days, and/or that the date of escalation, defined as the second of the 4 injections, had to be on or after Week 16 in Year 1. Three dosage escalator categories were defined, based on best ACR response rate achieved any time prior to escalation: Group A=ACR non-responders (never achieved ACR20 prior to dosage escalation), Group B=Partial responders (achieved ACR20 or ACR50 at least once prior to escalation, but never ACR70), and Group C=ACR70 responders (achieved ACR70 at least once prior to escalation). Data are from the intention-to-treat (ITT) population, with missing data analyzed by non-responder imputation (NRI) for clinical measures and by linear imputation for total Sharp scores (TSS).

[5] = 3 years, initially randomized to 40 mg eow

CN(Cc1cnc2nc(N)nc(N)c2n1)c1ccc(C(=O)N[C@@H](CCC(=O)O)C(=O)O)cc1 [mtx alone, methotrexate]
HAQ = 0 ([1]; 1 year): 19 % patients
Morning Stiffness = 0 ([1]; 1 year): 31 % patients
SJC = 0 ([1]; 1 year): 17 % patients
TJC = 0 ([1]; 1 year): 14 % patients
AM (morning) stiffness = 0 ([1]; 2 years): 30 % of patients
HAQ = 0 ([1]; 2 years): 19 % of patients
SJC = 0 ([1]; 2 years): 19 % of patients
TJC = 0 ([1]; 2 years): 21 % of patients
clinical remission, DAS28 < 2.6 ([2]; week 52 (1 year)): 21 % of patients
clinical remission, DAS28 < 2.6 ([2]; week 104 (2 years)): 25 % of patients
Erosions mean change ([3]; week 52, baseline CRP 1-4 mg/dL): 1.7
TSS mean change ([3]; week 52, baseline CRP 1-4 mg/dL, listed as MTX): 3.0
TSS mean change ([3]; week 52, baseline CRP 1-4 mg/dL, listed as Mtx): 3.25 (n = 54)
Erosions mean change ([3]; week 52, baseline CRP <1 mg/dL): 1.5
TSS mean change ([3]; week 52, baseline CRP <1 mg/dL, listed as MTX): 2.1
TSS mean change ([3]; week 52, baseline CRP <1 mg/dL, listed as Mtx): 1.8 (n = 71)
Erosions mean change ([3]; week 52, baseline CRP >4 mg/dL): 2.1
TSS mean change ([3]; week 52, baseline CRP >4 mg/dL, listed as MTX): 4.5
TSS mean change ([3]; week 52, baseline CRP >4 mg/dL, listed as Mtx): 4.23 (n = 15)
ACR20 following dosage escalation, % of all patients in arm ([4]; 1 year): 3.5%
ACR70 following dosage escalation, % of all patients in arm ([4]; 1 year): 0.8%
DAS28 < 2.6 following dosage escalation, % of all patients in arm ([4]; 1 year): 0.0%
No radiographic progression, % of patients ([4]; 2 years, eow dosing): 36.6%
ACR20 following dosage escalation, % of all patients in arm ([4]; 2 years): 3.6%
ACR70 following dosage escalation, % of all patients in arm ([4]; 2 years): 1.2%
DAS28 < 2.6 following dosage escalation, % of all patients in arm ([4]; 2 years): 0.8%
No radiographic progression, % of patients ([4]; 2 years, weekly dosing): 21.2%
ACR50, % of responders ([4]; Year 1): 17%
ACR70, % of responders ([4]; Year 1): 8%
ACR50, % of responders ([4]; Year 2): 21%
ACR70, % of responders ([4]; Year 2): 12%
patients who increased injectable medication to weekly [4]: 20%

adalimumab: human anti-TNF mAb (HUMIRA, Abbott Laboratories), described in U.S. Pat. No. 6,090,382 as D2E7
HAQ = 0 ([1]; 1 year): 17 % patients
Morning Stiffness = 0 ([1]; 1 year): 32 % patients
SJC = 0 ([1]; 1 year): 16 % patients
TJC = 0 ([1]; 1 year): 18 % patients
AM (morning) stiffness = 0 ([1]; 2 years): 30 % of patients
HAQ = 0 ([1]; 2 years): 19 % of patients
SJC = 0 ([1]; 2 years): 19 % of patients
TJC = 0 ([1]; 2 years): 15 % of patients
clinical remission, DAS28 < 2.6 ([2]; week 52 (1 year)): 23 % of patients
clinical remission, DAS28 < 2.6 ([2]; week 104 (2 years)): 25 % of patients
patients with radiographic improvement (change <−0.5 units), total sharp score ([3]; 3 years): 28%
patients with radiographic improvement, joint erosion score ([3]; 3 years): 29%
patients with radiographic improvement, joint space narrowing score ([3]; 3 years): 20%
patients with no radiographic progression, joint erosion score [3, 5]: 71%
patients with no radiographic progression, joint space narrowing score [3, 5]: 73%
patients with no radiographic progression, total sharp score [3, 5]: 62%
ACR20 following dosage escalation, % of all patients in arm ([4]; 1 year): 1.8%
ACR60 following dosage escalation, % of all patients in arm ([4]; 1 year): 1.6%
ACR70 following dosage escalation, % of all patients in arm ([4]; 1 year): 0 (0) %
DAS28 < 2.6 following dosage escalation, % of all patients in arm ([4]; 1 year): 0.4%
No radiographic progression, % of patients ([4]; 2 years, eow dosing): 48.8%
ACR20 following dosage escalation, % of all patients in arm ([4]; 2 years): 2.6%
ACR60 following dosage escalation, % of all patients in arm ([4]; 2 years): 0.4%
ACR70 following dosage escalation, % of all patients in arm ([4]; 2 years): 0.4%
DAS28 < 2.6 following dosage escalation, % of all patients in arm ([4]; 2 years): 0.4%
No radiographic progression, % of patients ([4]; 2 years, weekly dosing): 31.9%
ACR50, % of responders ([4]; Year 1): 17%
ACR70, % of responders ([4]; Year 1): 6%
ACR50, % of responders ([4]; Year 2): 16%
ACR70, % of responders ([4]; Year 2): 10%
patients who increased injectable medication to weekly [4]: 25%

From patent publication US20120171123A1, “USES AND COMPOSITIONS FOR TREATMENT OF RHEUMATOID ARTHRITIS” (priority 2006, published 2012)
